Measurements as given in article PMC8922279, “Identification of β-Lactams Active against Mycobacterium tuberculosis by a Consortium of Pharmaceutical Companies and Academic Institutions” (ACS Infectious Diseases, 2022).
Like-named read-outs stand apart in the source and are kept apart here.

Columns and labels:
S. aureus = experiment: Microbial spectrum, S. aureus; format: cell-based, Staphylococcus aureus; settings: clavulanate 4 μg/mL; Table S4
Caco-2 cells = experiment: Caco-2 permeability / efflux transporter substrate; settings: for Caco-2 Mean Papp A to B / Caco-2 Mean Papp B to A: 3 μM, pH 7.4, 120 min
plasma proteins [1] = experiment: Plasma protein binding (equilibrium dialysis), beagle dog; settings: 2 μM
P. aeruginosa = experiment: Microbial spectrum, P. aeruginosa; format: cell-based, Pseudomonas aeruginosa; settings: clavulanate 4 μg/mL; Table S4
C. albicans = experiment: Microbial spectrum, C. albicans; format: cell-based, Candida albicans; settings: no clavulanate; Table S4
Mtb H37Rv [2] = experiment: MIC90 against replicating (R) Mtb H37Rv, with or without clavulanate; format: cell-based, Mycobacterium tuberculosis; settings: Table S4; for Mtb H37Rv R + CLAV (MIC90): clavulanate 4 μg/mL; for Mtb H37Rv R (MIC90): no clavulanate
[3] = Stability in fasted simulated intestinal fluid (FaSSIF); settings: 10 μM, pH 6.5, room temperature
plasma proteins [4] = experiment: Plasma protein binding (equilibrium dialysis), CD-1 mouse; settings: 2 μM
[5] = In vitro plasma stability, SD rat plasma; settings: 2 μM, 37 °C, time point 120 min
[6] = In vitro plasma stability, beagle dog plasma; settings: 2 μM, 37 °C, time point 120 min
plasma proteins [7] = experiment: Plasma protein binding (equilibrium dialysis), human; settings: 2 μM
[8] = In vitro plasma stability, cynomolgus monkey plasma; settings: 2 μM, 37 °C, time point 120 min
plasma proteins [9] = experiment: Plasma protein binding (equilibrium dialysis), cynomolgus monkey; settings: 2 μM
plasma proteins [10] = experiment: Plasma protein binding (equilibrium dialysis), SD rat; settings: 2 μM
Mtb H37Rv [11] = experiment: MIC90 against nonreplicating (NR, 4-stress) Mtb H37Rv, with or without clavulanate; format: cell-based, Mycobacterium tuberculosis; settings: 4-stress nonreplicating, Table S4; for Mtb H37Rv NR + CLAV (MIC90): clavulanate 4 μg/mL; for Mtb H37Rv NR (MIC90): no clavulanate
[12] = In vitro plasma stability, CD-1 mouse plasma; settings: 2 μM, 37 °C, time point 120 min
E. coli = experiment: Microbial spectrum, E. coli; format: cell-based, Escherichia coli; settings: clavulanate 4 μg/mL; Table S4
[13] = Mouse PK in uninfected CD-1 mice (i.v. and p.o.)
[14] = In vitro plasma stability, human plasma; settings: 2 μM, 37 °C, time point 120 min
[15] = Stability in simulated gastric fluid (SGF); settings: 10 μM, pH 1.2, room temperature
[16] = 300 mg/kg sc, uninfected DHP-1 mice
in vivo [17] = settings: DHP-1 knockout, mouse, sc, 300 mg/kg
in vivo [18] = settings: female, 129sv DHP-1 knockout, mouse, sc, 50 mg/kg
wild-type Mtb H37Rv = format: in vivo, 129sv DHP-1 knockout mice; settings: for Log10 CFU per mouse (lungs), Mean: 50 mg/kg sc bid + clavulanate 100 mg/kg po bid, days 9-15, lungs day 16, untreated day 16 mean 9.1
[19] = female, 129sv DHP-1 knockout, mouse, in vivo

For `O=C(O)C1=C(CSc2cccc[n+]2[O-])CS[C@@H]2[C@H](NC(=O)C(F)c3ccccc3)C(=O)N12` (some centres unmarked) [TBBL-0000004], the S.aureus R + CLAV (MIC90) (S. aureus) was 1.4 µM, the “Caco-2 Mean Papp A to B” value (Caco-2 cells) was < 0.12 10-6 cm/s and the “Caco-2 Mean Papp B to A” value (Caco-2 cells) was < 0.11 10-6 cm/s. The “Caco-2 Mean Recovery % A to B” value (Caco-2 cells; Caco-2) was under 98.09%, the “Caco-2 Mean Recovery % B to A” value (Caco-2 cells; Caco-2) was under 112.70% and the “Caco-2 Rank Papp” value (Caco-2 cells; Caco-2) was “Low”. For the same compound, the “% bound to plasma, Beagle Dog” value (plasma proteins [1]) was 59.2%, the P.aeruginosa R + CLAV (MIC90) (P. aeruginosa) was over 100 µM and the C.albicans R (MIC90) (C. albicans) was over 100 µM. The Mtb H37Rv R + CLAV (MIC90) (Mtb H37Rv [2]) was 1.5 µM, the Mtb H37Rv R (MIC90) (Mtb H37Rv [2]) was 1.2 µM and the “FaSSIF Stability, % remaining, 6h” value [3] was 88.58%. The “FaSSIF Stability, % remaining, 24h” value [3] was 94.96%, the “% bound to plasma, CD-1 Mouse” value (plasma proteins [4]) was 65.5% and the “Plasma stability % Remaining, Rat” value [5] was 71.0%. For the same compound, the “Plasma stability % Remaining, Dog” value [6] was 64.1%, the “% bound to plasma, Human” value (plasma proteins [7]) was 74.1% and the “Plasma stability % Remaining, Monkey” value [8] was 103.9%. For the same compound, the “% bound to plasma, Cynomolgus Monkey” value (plasma proteins [9]) was 78.2%, the “% bound to plasma, SD Rat” value (plasma proteins [10]) was 62.0% and the Mtb H37Rv NR + CLAV (MIC90) (Mtb H37Rv [11]) was 2.3 µM. The Mtb H37Rv NR (MIC90) (Mtb H37Rv [11]) was 1.7 µM, the “Plasma stability % Remaining, Mouse” value [12] was 84.1% and the E.coli R + CLAV (MIC90) (E. coli) was over 100 µM. For the same compound, the “AUC[0-5h]” value ([13]; i.v. dosing (5 mg/kg)) was 5075 ng·h/mL, the Vd ([13]; i.v. dosing (5 mg/kg)) was 1.02 L/kg and the clearance ([13]; i.v. dosing (5 mg/kg)) was 16.4 mL/min/kg. The half-life ([13]; i.v. dosing (5 mg/kg)) was 32.4 min, the k el ([13]; i.v. dosing (5 mg/kg)) was 0.96 h⁻¹ and the “Plasma stability % Remaining, Human” value [14] was 81.0%.

With `CCc1nnc(SCC2=C(C(=O)O)N3C(=O)[C@@H](NC(=O)Cc4ccc(C5=NCCN5)cc4)[C@H]3SC2)s1` [TBBL-0000310] the S.aureus R + CLAV (MIC90) (S. aureus) was 0.9 µM, the “Caco-2 Mean Papp A to B” value (Caco-2 cells) was 0.46 10-6 cm/s and the “Caco-2 Mean Papp B to A” value (Caco-2 cells) was 0.43 10-6 cm/s. The “Caco-2 Efflux Ratio” value (Caco-2 cells; Caco-2) was 0.94, the “Caco-2 Mean Recovery % A to B” value (Caco-2 cells; Caco-2) was 99.13% and the “Caco-2 Mean Recovery % B to A” value (Caco-2 cells; Caco-2) was 102.93%. The “Caco-2 Rank Papp” value (Caco-2 cells; Caco-2) was “Low”, the “Efflux Transporter Substrate” value (Caco-2 cells; Caco-2) was “Poor or no” and the “% bound to plasma, Beagle Dog” value (plasma proteins [1]) was 30.5%. The P.aeruginosa R + CLAV (MIC90) (P. aeruginosa) was over 100 µM, the C.albicans R (MIC90) (C. albicans) was over 100 µM and the Mtb H37Rv R + CLAV (MIC90) (Mtb H37Rv [2]) was 0.5 µM. For the same compound, the Mtb H37Rv R (MIC90) (Mtb H37Rv [2]) was 16.4 µM, the “FaSSIF Stability, % remaining, 6h” value [3] was 98.8% and the “FaSSIF Stability, % remaining, 24h” value [3] was 95.07%. The “% bound to plasma, CD-1 Mouse” value (plasma proteins [4]) was 49.9%, the “Plasma stability % Remaining, Rat” value [5] was 80.0% and the “Plasma stability % Remaining, Dog” value [6] was 79.6%. The “SGF Stability, % remaining, 1h” value ([15]; 1 h) was 86.27%, the “SGF Stability, % remaining, 24h” value ([15]; 24 h) was 0.61% and the “% bound to plasma, Human” value (plasma proteins [7]) was 60.7%. For the same compound, the “Plasma stability % Remaining, Monkey” value [8] was 110.3%, the “% bound to plasma, Cynomolgus Monkey” value (plasma proteins [9]) was 56.2% and the “% bound to plasma, SD Rat” value (plasma proteins [10]) was 81.2%. For the same compound, the Mtb H37Rv NR + CLAV (MIC90) (Mtb H37Rv [11]) was 92.2 µM, the Mtb H37Rv NR (MIC90) (Mtb H37Rv [11]) was 90.4 µM and the “Plasma stability % Remaining, Mouse” value [12] was 82.2%. For the same compound, the E.coli R + CLAV (MIC90) (E. coli) was 49.9 µM, the “AUC[0-5h]” value ([13]; i.v. dosing (5 mg/kg)) was 39113 ng·h/mL and the Vd ([13]; i.v. dosing (5 mg/kg)) was 0.09 L/kg. For the same compound, the clearance ([13]; i.v. dosing (5 mg/kg)) was 2.13 mL/min/kg, the half-life ([13]; i.v. dosing (5 mg/kg)) was 28.8 min and the k el ([13]; i.v. dosing (5 mg/kg)) was 1.45 h⁻¹. For the same compound, the “AUC[0-5h]” value ([13]; p.o. dosing (25 mg/kg)) was 614 ng·h/mL, the bioavailability ([13]; p.o. dosing (25 mg/kg)) was 0.34% and the “Plasma stability % Remaining, Human” value [14] was 78.9%.

For `NC(C(=O)N[C@@H]1C(=O)N2C(C(=O)O)=C(CSc3cccc[n+]3[O-])CS[C@H]12)c1ccc(O)cc1` (some centres unmarked) [TBBL-0000652], the “Comments (tolerability)” value [16] was “Recovered at t= 8h”, the Tlast [16] was 2.0 to 4.0 h and the AUC(0-t) (in vivo [17]) was 29400 ± 32900 ng·h/mL. The Cmax (in vivo [17]) was 22200 ± 21700 ng/mL, the Tmax (in vivo [17]) was 60 to 120 min and the AUC(0-t) (in vivo [18]) was 11500 ng·h/mL. For the same compound, the Cmax (in vivo [18]) was 8320 ng/mL, the Tmax (in vivo [18]) was 60 min and the “Log10 CFU per mouse (lungs), Mean” value (wild-type Mtb H37Rv) was 8.6 Log10 CFU. For the same compound, the “reduction of lung CFU compared to untreated control mice” value (wild-type Mtb H37Rv; mouse, in vivo) was about 0.5 log10 and the Tlast [19] was 3.0 h.

`C=CC1=C(C(=O)O)N2C(=O)[C@@H](NC(=O)/C(=N\O)c3csc(N)n3)[C@H]2SC1` [Cefdinir, reference compound] gave an AUC(0-t) (in vivo [18]) of 4630 ng·h/mL, a Cmax (in vivo [18]) of 8730 ng/mL and a Tmax (in vivo [18]) of 30 min. For the same compound, the “Log10 CFU per mouse (lungs), Mean” value (wild-type Mtb H37Rv) was 8.5 Log10 CFU, the “effect on lung CFU (in words)” value (wild-type Mtb H37Rv; mouse, in vivo) was “lower lung CFU count compared to untreated mice” and the Tlast [19] was 1.0 h.
